In US12077503B2, “Substituted cyclic amides and their use as herbicides” (FMC CORPORATION, priority 2015, dated 2024):

Legend:
Assay type in all cases: in vivo
[1] = test system: barnyardgrass (Echinochloa crus-galli); experiment: Test A preemergence; conditions: Echinochloa crus-galli, pre-emergence, 240 h, preemergence, 0 to 100 scale where 0 is no effect and 100 is complete control, read-out: Barnyardgrass plant response rating; for pest or weed control at 125 g/ha: 125 g ai/ha, visual injury rating, approximately 10 d; for pest or weed control at 500 g/ha: 500 g ai/ha
Outline: (§1)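 Ratings of 0 (no effect) to 100 (complete control) come from visual comparison with untreated controls roughly 10 d after treatment. Test chemicals, formulated in a non-phytotoxic solvent mixture with surfactant, were applied either as a preemergence directed soil spray on seeded soil or postemergence to one- to two-leaf plants 2 to 10 cm tall.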

[2] = test system: pigweed (Amaranthus retroflexus); experiment: Test A preemergence; conditions: Amaranthus retroflexus, pre-emergence, 240 h, preemergence, 0 to 100 scale where 0 is no effect and 100 is complete control, read-out: Pigweed plant response rating; for pest or weed control at 125 g/ha: 125 g ai/ha, visual injury rating, approximately 10 d; for pest or weed control at 500 g/ha: 500 g ai/ha
[3] = test system: ryegrass, Italian (Italian ryegrass, Lolium multiflorum); experiment: Test A preemergence; conditions: Lolium multiflorum, pre-emergence, 240 h, preemergence, 0 to 100 scale where 0 is no effect and 100 is complete control, read-out: Ryegrass, Italian plant response rating; for pest or weed control at 125 g/ha: 125 g ai/ha, visual injury rating, approximately 10 d; for pest or weed control at 500 g/ha: 500 g ai/ha
Outline: as §1

[4] = test system: ragweed (common ragweed, Ambrosia elatior); experiment: Test A preemergence; conditions: Ambrosia artemisiifolia, pre-emergence, 240 h, preemergence, 0 to 100 scale where 0 is no effect and 100 is complete control, read-out: Ragweed plant response rating; for pest or weed control at 125 g/ha: 125 g ai/ha, visual injury rating, approximately 10 d; for pest or weed control at 500 g/ha: 500 g ai/ha
Outline: as §1

Kochia (Kochia scoparia) = experiment: Test A preemergence; conditions: Bassia scoparia, pre-emergence, 240 h, preemergence, 0 to 100 scale where 0 is no effect and 100 is complete control, read-out: Kochia plant response rating; for pest or weed control at 125 g/ha: 125 g ai/ha, visual injury rating, approximately 10 d; for pest or weed control at 500 g/ha: 500 g ai/ha
Outline: as §1

[5] = test system: giant foxtail (Setaria faberii); experiment: Test A preemergence; conditions: Setaria faberi, pre-emergence, 240 h, preemergence, 0 to 100 scale where 0 is no effect and 100 is complete control, read-out: Foxtail, Giant plant response rating; for pest or weed control at 125 g/ha: 125 g ai/ha, visual injury rating, approximately 10 d; for pest or weed control at 500 g/ha: 500 g ai/ha
Outline: as §1

[6] = test system: blackgrass (Alopecurus myosuroides); experiment: Test A postemergence; conditions: Alopecurus myosuroides, post-emergence, 240 h, postemergence; for pest or weed control at 125 g/ha: 125 g ai/ha, visual injury vs untreated controls after approx. 10 d, 0 = no effect, 100 = complete control, read-out: Blackgrass plant response rating (0 to 100 scale); for pest or weed control at 500 g/ha: 500 g ai/ha, 0 to 100 scale, 0 is no effect, 100 is complete control, read-out: Blackgrass plant response rating
Outline: as §1

[7] = test system: barnyardgrass (Echinochloa crus-galli); experiment: Test A postemergence; conditions: Echinochloa crus-galli, post-emergence, 240 h, postemergence; for pest or weed control at 125 g/ha: 125 g ai/ha, visual injury vs untreated controls after approx. 10 d, 0 = no effect, 100 = complete control, read-out: Barnyardgrass plant response rating (0 to 100 scale); for pest or weed control at 500 g/ha: 500 g ai/ha, 0 to 100 scale, 0 is no effect, 100 is complete control, read-out: Barnyardgrass plant response rating
Outline: as §1

[8] = test system: pigweed (Amaranthus retroflexus); experiment: Test A postemergence; conditions: Amaranthus retroflexus, post-emergence, 240 h, postemergence; for pest or weed control at 125 g/ha: 125 g ai/ha, visual injury vs untreated controls after approx. 10 d, 0 = no effect, 100 = complete control, read-out: Pigweed plant response rating (0 to 100 scale); for pest or weed control at 500 g/ha: 500 g ai/ha, 0 to 100 scale, 0 is no effect, 100 is complete control, read-out: Pigweed plant response rating
Outline: as §1

[9] = test system: ryegrass, Italian (Italian ryegrass, Lolium multiflorum); experiment: Test A postemergence; conditions: Lolium multiflorum, post-emergence, 240 h, postemergence; for pest or weed control at 125 g/ha: 125 g ai/ha, visual injury vs untreated controls after approx. 10 d, 0 = no effect, 100 = complete control, read-out: Ryegrass, Italian plant response rating (0 to 100 scale); for pest or weed control at 500 g/ha: 500 g ai/ha, 0 to 100 scale, 0 is no effect, 100 is complete control, read-out: Ryegrass, Italian plant response rating
Outline: as §1

[10] = test system: ragweed (common ragweed, Ambrosia elatior); experiment: Test A postemergence; conditions: Ambrosia artemisiifolia, post-emergence, 240 h, postemergence; for pest or weed control at 125 g/ha: 125 g ai/ha, visual injury vs untreated controls after approx. 10 d, 0 = no effect, 100 = complete control, read-out: Ragweed plant response rating (0 to 100 scale); for pest or weed control at 500 g/ha: 500 g ai/ha, 0 to 100 scale, 0 is no effect, 100 is complete control, read-out: Ragweed plant response rating
Outline: as §1

corn (Zea mays) = experiment: Test A postemergence; conditions: Zea mays, post-emergence, 240 h, postemergence; for plant injury at 125 g/ha: 125 g ai/ha, visual injury vs untreated controls after approx. 10 d, 0 = no effect, 100 = complete control, read-out: Corn plant response rating (0 to 100 scale); for plant injury at 500 g/ha: 500 g ai/ha, 0 to 100 scale, 0 is no effect, 100 is complete control, read-out: Corn plant response rating
Outline: as §1

[11] = test system: Galium (catchweed bedstraw, Galium aparine); experiment: Test A postemergence; conditions: Galium, post-emergence, 240 h, postemergence; for pest or weed control at 125 g/ha: 125 g ai/ha, visual injury vs untreated controls after approx. 10 d, 0 = no effect, 100 = complete control, read-out: Galium plant response rating (0 to 100 scale); for pest or weed control at 500 g/ha: 500 g ai/ha, 0 to 100 scale, 0 is no effect, 100 is complete control, read-out: Galium plant response rating
Outline: as §1

[12] = test system: giant foxtail (Setaria faberii); experiment: Test A postemergence; conditions: Setaria faberi, post-emergence, 240 h, postemergence; for pest or weed control at 125 g/ha: 125 g ai/ha, visual injury vs untreated controls after approx. 10 d, 0 = no effect, 100 = complete control, read-out: Foxtail, Giant plant response rating (0 to 100 scale); for pest or weed control at 500 g/ha: 500 g ai/ha, 0 to 100 scale, 0 is no effect, 100 is complete control, read-out: Foxtail, Giant plant response rating
Outline: as §1

[13] = test system: wheat (Triticum aestivum); experiment: Test A postemergence; conditions: Triticum aestivum, post-emergence, 240 h, postemergence; for plant injury at 125 g/ha: 125 g ai/ha, visual injury vs untreated controls after approx. 10 d, 0 = no effect, 100 = complete control, read-out: Wheat plant response rating (0 to 100 scale); for plant injury at 500 g/ha: 500 g ai/ha, 0 to 100 scale, 0 is no effect, 100 is complete control, read-out: Wheat plant response rating
Outline: as §1

Row | Compound | pest or weed control at 125 g/ha [1] [%] | pest or weed control at 500 g/ha [1] [%] | pest or weed control at 125 g/ha [2] [%] | pest or weed control at 500 g/ha [2] [%] | pest or weed control at 125 g/ha [3] [%] | pest or weed control at 500 g/ha [3] [%] | pest or weed control at 125 g/ha [4] [%] | pest or weed control at 500 g/ha [4] [%] | pest or weed control at 125 g/ha (Kochia (Kochia scoparia)) [%] | pest or weed control at 500 g/ha (Kochia (Kochia scoparia)) [%] | pest or weed control at 125 g/ha [5] [%] | pest or weed control at 500 g/ha [5] [%] | pest or weed control at 125 g/ha [6] [%] | pest or weed control at 500 g/ha [6] [%] | pest or weed control at 125 g/ha [7] [%] | pest or weed control at 500 g/ha [7] [%] | pest or weed control at 125 g/ha [8] [%] | pest or weed control at 500 g/ha [8] [%] | pest or weed control at 125 g/ha [9] [%] | pest or weed control at 500 g/ha [9] [%] | also measured
1 | Cc1ccc([C@H]2CCN(C)C(=O)[C@@H]2C(=O)Nc2ccccc2C(F)(F)F)cc1 [Compound 1219] | 70 | 90 | 0 | 0 | 0 | 0 | 0 | 0 | 0 | 0 | 80 | 90 | 0 | 0 | 30 | 60 | 0 | 0 | 0 | 20 | pest or weed control at 125 g/ha [10]: 0%; pest or weed control at 500 g/ha [10]: 20%; plant injury at 125 g/ha (corn (Zea mays)): 0%; plant injury at 500 g/ha (corn (Zea mays)): 0%; pest or weed control at 125 g/ha [11]: 0%; pest or weed control at 500 g/ha [11]: 0%; pest or weed control at 125 g/ha [12]: 50%; pest or weed control at 500 g/ha [12]: 80%; plant injury at 125 g/ha [13]: 0%; plant injury at 500 g/ha [13]: 0%
2 | Cc1ccc([C@H]2CCN(C)C(=O)[C@@H]2C(=O)Nc2cccc(Cl)c2F)cc1 [Compound 1223] | 90 | 90 | 0 | 0 | 0 | 0 | 0 | 20 | 0 | 20 | 90 | 90 | 30 | 50 | 30 | 50 | 0 | 0 | 20 | 60 | pest or weed control at 125 g/ha [10]: 0%; pest or weed control at 500 g/ha [10]: 20%; plant injury at 125 g/ha (corn (Zea mays)): 0%; plant injury at 500 g/ha (corn (Zea mays)): 0%; pest or weed control at 125 g/ha [11]: 20%; pest or weed control at 500 g/ha [11]: 40%; pest or weed control at 125 g/ha [12]: 90%; pest or weed control at 500 g/ha [12]: 90%; plant injury at 125 g/ha [13]: 0%; plant injury at 500 g/ha [13]: 30%
3 | Cc1cccc([C@H]2CN(C)C(=O)[C@@H]2C(=O)Nc2ccc(F)c(F)c2F)c1 [Compound 1231] | 90 | 90 | 40 | 70 | 40 | 90 | 30 | 60 | 70 | 90 | 90 | 90 | 0 | 40 | 80 | 80 | 0 | 50 | 40 | 50 | pest or weed control at 125 g/ha [10]: 0%; pest or weed control at 500 g/ha [10]: 30%; plant injury at 125 g/ha (corn (Zea mays)): 70%; plant injury at 500 g/ha (corn (Zea mays)): 80%; pest or weed control at 125 g/ha [11]: 50%; pest or weed control at 500 g/ha [11]: 70%; pest or weed control at 125 g/ha [12]: 80%; pest or weed control at 500 g/ha [12]: 90%; plant injury at 125 g/ha [13]: 50%
4 | Cc1cccc([C@H]2CN(C)C(=O)[C@@H]2C(=O)Nc2cccc(F)c2C)c1 [Compound 1233] | 90 | 90 | 40 | 40 | 40 | 70 | 30 | 50 | 70 | 70 | 90 | 90 | 0 | 40 | 80 | 80 | 0 | 20 | 40 | 50 | pest or weed control at 125 g/ha [10]: 0%; pest or weed control at 500 g/ha [10]: 30%; plant injury at 125 g/ha (corn (Zea mays)): 70%; plant injury at 500 g/ha (corn (Zea mays)): 80%; pest or weed control at 125 g/ha [11]: 20%; pest or weed control at 500 g/ha [11]: 60%; pest or weed control at 125 g/ha [12]: 80%; pest or weed control at 500 g/ha [12]: 90%; plant injury at 125 g/ha [13]: 40%
